Laboratory results from BindingDB's records for doi:10.1016/0960-894X(96)00323-X (1996).

assay: Inhibition of Phosphodiesterase 5 from human corpus cavernosum

In order of rising IC50:
1. CCCc1nn(C)c2c(=O)[nH]c(-c3cc(S(=O)(=O)N4CCN(C(N)=O)CC4)ccc3OCC)nc12 [4-[4-Ethoxy-3-(1-methyl-7-oxo-3-propyl-6,7-dihydro-1H-pyrazolo[4,3-d]pyrimidin-5-yl)-benzenesulfonyl]-piperazine-1-carboxylic acid amide]  2.1 nM
2. CCCc1nn(C)c2c(=O)[nH]c(-c3cc(S(=O)(=O)N4CCN(CCO)CC4)ccc3OCC)nc12 [5-{2-Ethoxy-5-[4-(2-hydroxy-ethyl)-piperazine-1-sulfonyl]-phenyl}-1-methyl-3-propyl-1,6-dihydro-pyrazolo[4,3-d]pyrimidin-7-one]  19 nM
3. CCCc1[nH]nc2c(=O)[nH]c(-c3ccccc3O)nc12 [5-(2-Hydroxy-phenyl)-3-propyl-1,6-dihydro-pyrazolo[4,3-d]pyrimidin-7-one]  1000 nM
4. CCCc1[nH]nc2c(=O)[nH]c(-c3ccccc3)nc12 [5-Phenyl-3-propyl-1,6-dihydro-pyrazolo[4,3-d]pyrimidin-7-one]  4500 nM
